This passage reports IC50 results from article PMC7267738 (iScience, 2020).

The target of assay [1] is purified recombinant c-Met kinase domains (Homo sapiens, UniProt P08581). Kind of assay: Biochemical kinase assay.
Another assay has as its target c-Met (Homo sapiens, UniProt P08581). The format is cell-based.

Chain of c-Met (P08581 25-1390): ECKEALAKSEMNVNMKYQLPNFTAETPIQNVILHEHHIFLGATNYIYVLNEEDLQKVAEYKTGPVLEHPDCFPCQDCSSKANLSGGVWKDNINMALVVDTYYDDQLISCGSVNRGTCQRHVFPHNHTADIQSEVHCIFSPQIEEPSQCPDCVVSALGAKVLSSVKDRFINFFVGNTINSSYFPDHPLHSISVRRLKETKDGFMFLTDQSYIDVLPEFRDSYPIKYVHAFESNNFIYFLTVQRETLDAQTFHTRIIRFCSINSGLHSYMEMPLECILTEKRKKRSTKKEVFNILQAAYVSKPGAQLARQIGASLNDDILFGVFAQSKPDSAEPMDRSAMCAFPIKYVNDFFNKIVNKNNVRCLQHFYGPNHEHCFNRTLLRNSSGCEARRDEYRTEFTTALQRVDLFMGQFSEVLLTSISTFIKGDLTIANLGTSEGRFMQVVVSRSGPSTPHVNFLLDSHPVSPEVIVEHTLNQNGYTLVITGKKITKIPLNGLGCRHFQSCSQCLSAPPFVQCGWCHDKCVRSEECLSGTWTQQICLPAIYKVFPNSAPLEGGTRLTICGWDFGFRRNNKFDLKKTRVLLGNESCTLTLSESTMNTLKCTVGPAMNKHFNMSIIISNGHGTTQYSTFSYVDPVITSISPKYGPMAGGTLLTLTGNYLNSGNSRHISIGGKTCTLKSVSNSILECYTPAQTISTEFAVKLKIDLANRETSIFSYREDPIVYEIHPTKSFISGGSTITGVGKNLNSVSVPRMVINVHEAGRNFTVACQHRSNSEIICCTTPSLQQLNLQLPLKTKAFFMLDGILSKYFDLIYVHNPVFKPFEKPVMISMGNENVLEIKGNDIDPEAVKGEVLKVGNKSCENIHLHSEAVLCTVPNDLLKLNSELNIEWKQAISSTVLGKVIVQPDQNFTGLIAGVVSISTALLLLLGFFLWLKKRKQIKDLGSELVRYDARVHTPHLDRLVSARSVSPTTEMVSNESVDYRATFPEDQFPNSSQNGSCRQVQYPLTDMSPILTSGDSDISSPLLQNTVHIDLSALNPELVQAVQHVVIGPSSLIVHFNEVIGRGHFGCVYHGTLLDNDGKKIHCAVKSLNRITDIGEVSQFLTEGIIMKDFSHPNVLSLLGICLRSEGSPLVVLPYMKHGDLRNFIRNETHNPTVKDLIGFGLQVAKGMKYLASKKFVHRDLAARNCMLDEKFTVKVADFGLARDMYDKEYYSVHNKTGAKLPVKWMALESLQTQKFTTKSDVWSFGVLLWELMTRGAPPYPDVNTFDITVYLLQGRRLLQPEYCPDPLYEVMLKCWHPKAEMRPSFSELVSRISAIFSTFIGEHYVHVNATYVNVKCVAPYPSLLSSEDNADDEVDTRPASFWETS
Chain of purified recombinant c-Met kinase domains (P08581 1078-1345 limits assumed): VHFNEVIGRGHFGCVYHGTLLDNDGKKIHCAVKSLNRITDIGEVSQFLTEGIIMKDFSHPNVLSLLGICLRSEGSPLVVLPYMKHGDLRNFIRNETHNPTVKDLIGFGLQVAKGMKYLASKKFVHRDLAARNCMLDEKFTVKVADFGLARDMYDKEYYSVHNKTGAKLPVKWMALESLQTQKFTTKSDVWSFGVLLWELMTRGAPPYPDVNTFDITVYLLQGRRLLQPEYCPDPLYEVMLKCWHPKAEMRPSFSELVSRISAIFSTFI

In the case of `COc1cc2ncnc(Oc3ccc(Nc4nccc5[nH]cc(-c6ccc(C(F)(F)F)cc6)c(=O)c45)cc3F)c2cc1OC` [Compound 5d], the figures for the IC50 (in assay [1]; against c-Met) were 0.0403 µM and 25 µM, respectively.

The IC50 is the point on the concentration scale where inhibition reaches its midpoint.
